We go through 5 molecules from PMC7795425, “Synthesis and Biological Activity of Brassinosteroid Analogues with a Nitrogen-Containing Side Chain” (International Journal of Molecular Sciences, 2020).

SMILES strings stand for the structures.

The test system of data set [1] is Arabidopsis thaliana L. (Columbia ecotype, Col-0) seedlings. In words: Arabidopsis root sensitivity bioassay. The format is in vivo. Conditions: for root length, mean: 7-day-old seedlings. As to the method:
Several bioassays such as the first bean internode, root growth and rice lamina inclination have been developed to evaluate the growth-promoting activity of BR derivatives. In this work, the activity of new BR analogues was evaluated using the Arabidopsis root sensitivity test because of its simplicity and high sensitivity for BRs.. The characteristic effect of exogenously applied BRs on light-grown Arabidopsis is dose-dependent—BRs in higher concentrations cause inhibition of root growth; vice versa, low concentrations are stimulating. The results obtained for 24-epiBL, which was used as a positive control, and the BR derivatives are shown in Figure 2, Figure 3 and Figure S21. […] A similar trend was shown for dimethylammonium hydrochloride 22a and morpholinium hydrochloride 22e with a long side chain. For numerical values of the average, SD and p-value, see Table S2.
The biological activity of the new BRs derivatives was tested by an Arabidopsis sensitivity bioassay which was performed according to [28]. Briefly, seedlings of Arabidopsis thaliana L. (Columbia ecotype, Col-0) were stratified for 2 days at 4 °C and germinated on vertical half-strength Murashige and Skoog (1% w/v sucrose) agar at 22 °C in a 16 h/8 h light–dark cycle. The plates contained concentrations of 24-epiBL (as positive control) and BR derivatives ranging from 0.1 to 10 nM, respectively 100 nM (for selected derivatives only). After 7 days, roots were straightened on solid media plates and scanned with an Epson high-resolution scanner. The entire root length was measured with ImageJ (http://rsbweb.nih.gov/ij/). For each treatment, more than 15 seedlings were analyzed in two biological repeats, and p-values were calculated with the two-tailed Student t-test using Excel software.
Figure 2 Effect of selected brassinosteroid derivatives on the inhibition of Arabidopsis root length. Seven-day-old Arabidopsis thaliana seedlings (Columbia ecotype, Col-0) were treated with DMSO as control/24epiBL/BR short side chain derivatives; (A)—amides, (B)—amines, (C)—ammonium hydrochlorides. For each treatment, more than 15 seedlings were analyzed in two biological repeats. Error bars represent SD. Asterisks represent significant changes (t-test); * represents p-value < 0.05, in comparison to control.
Figure 3 Effect of selected brassinosteroid derivatives on the inhibition of Arabidopsis root length. Seven-day-old Arabidopsis thaliana seedlings (Columbia ecotype, Col-0) were treated with DMSO as control/24epiBL/BR long side chain derivatives; (A)—amides, (B)—ammonium hydrochlorides. For each treatment, more than 15 seedlings were analyzed in two biological repeats. Error bars represent SD. Asterisks represent significant changes (t-test); * represents p-value < 0.05, in comparison to control.
Table S2: Data for figure 2, 3, and S21. P value <0.05(t-test), comparison to control.
control (mean ± SD) 16.3 ± 1.21
*only selected compounds were tested
mean(mm) SD t-test mean (mm) SD t-test mean (mm) SD t-test mean (mm) SD t-test
(1 picture or pasted object on this page, not shown here)

Data set [2] can be described thus: Calcein AM cytotoxicity assay, HeLa. The format is cell-based. The conditions noted are these: human, HeLa cervical carcinoma cells, IC50 > 50 µM means inactive, read-out: Cytotoxic activity IC50. Here is the method:
(§1) The effect of the prepared BRs derivatives on the viability (in Calcein AM assays) of BJ human fibroblasts (as an example of a “normal” cell line) and human cancer cell lines of various histopathological origins, including: T-lymphoblastic leukemia CEM, breast carcinoma MCF7 and cervical carcinoma cell line HeLa, was also studied. Cells of all these lines were exposed to six 3-fold dilutions of each drug for 72 h prior to determination of cell survival. The IC50 (concentration leading to 50% inhibition of viability) values obtained from the Calcein AM cytotoxicity assay were calculated. […] All tested BR nitrogen-containing derivatives had no detectable activity, even when tested in concentrations of up to 50 µM.
(§2) The screening cell lines: T-lymphoblastic leukemia CEM; breast carcinoma MCF7 (estrogen-sensitive); cervical carcinoma cell line HeLa; and human foreskin fibroblasts BJ, were obtained from the American Type Culture Collection (Manassas, VA, USA). Cells were cultured in DMEM (Dulbecco’s Modified Eagle Medium, Sigma, St. Louis, MO, USA). Media used were supplemented with 10% fetal bovine serum, 2mM L-glutamine and 1% penicillin–streptomycin. The cell lines were maintained under standard cell culture conditions at 37 °C and 5% CO2 in a humid environment.
(§3) Cells were subcultured twice or three times a week using the standard trypsinization procedure. Cytotoxicity in cancer cell lines after 72 h was determined as described earlier. Control cultures were treated with DMSO alone, and the final concentration of DMSO in the mixture never exceeded 0.6%. Six serial 3-fold dilutions of the test substances were added at time zero in 20 μL aliquots to the microtiter plate wells and the highest final concentration in the wells was 50 μM.
(§4) Table S3: Cytotoxic activities, IC50 (µM/L)a, of compounds in three tumor and one normal fibroblast
(§5) Compound CEM MCF7 HeLa BJ
(§6) a The lowest concentration that kills 50% of cells.
(§7) b Increase of cell proliferation.

Data set [3] in a line: Calcein AM cytotoxicity assay, BJ. It is filed as cell-based. Conditions: human, BJ foreskin fibroblasts (normal cell line), IC50 > 50 µM means inactive, read-out: Cytotoxic activity IC50. Here is the method:
as §1, §2, §3, §4, §5, §6, §7

A short description of data set [4]: Calcein AM cytotoxicity assay, CEM. It is filed as cell-based. The conditions noted are these: human, CEM T-lymphoblastic leukemia cells, IC50 > 50 µM means inactive, read-out: Cytotoxic activity IC50. As to the method: as §1, §2, §3, §4, §5, §6, §7
The nature of data set [5]: Calcein AM cytotoxicity assay, MCF7. Conditions: human, MCF7 breast carcinoma cells (estrogen-sensitive), MCF7, 72 h, IC50 > 50 µM means inactive, read-out: Cytotoxic activity IC50. It is filed as cell-based. Here is the method:
as §1, §2, §3, §4, §5, §6, §7

The mark [6] stands for this setting: 100 nM (only selected compounds), control 14.61 ± 0.85.

What is called IC50 is the concentration at which inhibition is half-maximal. What is called melting point is the temperature of the solid-liquid transition. In the case of `CCN(CC)C[C@@H](C)[C@H]1CC[C@H]2[C@@H]3CC(=O)[C@H]4C[C@H](O)[C@H](O)C[C@]4(C)[C@H]3CC[C@]12C` [15b, (20S)-20-(N,N-diethylaminomethyl)-2α,3α-dihydroxy-5α-pregnane-6-one], the melting point was > 190 °C (dec.). For the same molecule, the “root length, mean” value in data set [1] (0.1 nM, control 16.3 ± 1.21) turned out to be 14.93 mm. Moreover, in data set [1] (1 nM, control 16.3 ± 1.21), the “root length, mean” value amounted to 16.13 mm. For the same molecule, the “root length, mean” value in data set [1] (10 nM, control 16.3 ± 1.21) is listed as 14.67 mm. The “root length, mean” value in data set [1] (setting [6]) was 13.903 mm. Further, the IC50 at 72 h in data set [2] was more than 50 µM. In addition, the IC50 at 72 h in data set [3] is more than 50 µM. For the same molecule, in data set [4], the IC50 at 72 h is more than 50 µM. For the same molecule, the IC50 at 72 h in data set [5] is more than 50 µM.
On to `C[C@H]([C@@H](O)[C@H](O)C(=O)N(C)C)[C@H]1CC[C@H]2[C@@H]3CC(=O)[C@H]4C[C@H](O)[C@H](O)C[C@]4(C)[C@H]3CC[C@]12C` [20a, N,N-dimethyl-(20S,22R,23S)-2α,3α,22,23-tetrahydroxy-6-oxo-5α-cholan-24-amide], for which the melting point was > 210 °C (dec.). In data set [1] (0.1 nM, control 16.3 ± 1.21), the “root length, mean” value is 16.13 mm. Moreover, the “root length, mean” value in data set [1] (1 nM, control 16.3 ± 1.21) is recorded as 14.67 mm. In addition, the “root length, mean” value in data set [1] (10 nM, control 16.3 ± 1.21) is 14.18 mm. Further, in data set [1] (setting [6]), the “root length, mean” value turned out to be 15.192 mm. In addition, in data set [1] (tested 0.1 to 10 nM, selected derivatives also 100 nM), the “inhibitory effect on Arabidopsis root growth” value is given as “weak inhibitory effect”. The IC50 at 72 h in data set [2] was more than 50 µM. Also, the IC50 at 72 h in data set [3] is more than 50 µM. The IC50 at 72 h in data set [4] was more than 50 µM. For the same molecule, the IC50 at 72 h in data set [5] was more than 50 µM.
As for `C[C@H]([C@@H](O)[C@H](O)C(=O)N1CCCCC1)[C@H]1CC[C@H]2[C@@H]3CC(=O)[C@H]4C[C@H](O)[C@H](O)C[C@]4(C)[C@H]3CC[C@]12C` [20d, 1-((20S,22R,23S)-2α,3α,22,23-tetrahydroxy-6-oxo-5α-cholan-24-oyl)piperidine], the melting point is > 200 °C (dec.). In addition, the “root length, mean” value in data set [1] (0.1 nM, control 16.3 ± 1.21) was found to be 14.37 mm. In data set [1] (1 nM, control 16.3 ± 1.21), the “root length, mean” value was found to be 14.50 mm. Also, the “root length, mean” value in data set [1] (10 nM, control 16.3 ± 1.21) worked out at 14.51 mm. Further, the IC50 at 72 h in data set [2] is more than 50 µM. Further, in data set [3], the IC50 at 72 h was more than 50 µM. For the same molecule, in data set [4], the IC50 at 72 h is more than 50 µM. Further, the IC50 at 72 h in data set [5] is more than 50 µM.
For `C[C@H]([C@@H](O)[C@@H](O)CN(C)C)[C@H]1CC[C@H]2[C@@H]3CC(=O)[C@H]4C[C@H](O)[C@H](O)C[C@]4(C)[C@H]3CC[C@]12C.Cl` [22a, N,N-dimethyl-((20S,22R,23S)-2α,3α,22,23-tetrahydroxy-6-oxo-5α-cholan-24-yl)aminium chloride], the melting point is > 270 °C (dec.). Besides, the “root length, mean” value in data set [1] (0.1 nM, control 16.3 ± 1.21) stood at 19.56 mm. Besides, the “root length, mean” value in data set [1] (1 nM, control 16.3 ± 1.21) is reported as 18.17 mm. The “root length, mean” value in data set [1] (10 nM, control 16.3 ± 1.21) amounted to 17.11 mm. In data set [1] (setting [6]), the “root length, mean” value is 13.464 mm. Also, the “elongation of roots (growth-promoting activity) compared to the control” value in data set [1] (low concentrations (0.1 and 1 nM)) is given as “interesting growth-promoting activity”. In addition, the IC50 at 72 h in data set [2] is more than 50 µM. The IC50 at 72 h in data set [3] is more than 50 µM. In data set [4], the IC50 at 72 h was more than 50 µM. In addition, the IC50 at 72 h in data set [5] was more than 50 µM.
Consider `C[C@H](CN1CCOCC1)[C@H]1CC[C@H]2[C@@H]3CC(=O)[C@H]4C[C@H](O)[C@H](O)C[C@]4(C)[C@H]3CC[C@]12C` [15e, (20S)-20-(morpholin-4-ylmethyl)-2α,3α-dihydroxy-5α-pregnane-6-one], for which the melting point was > 210 °C (dec.). Moreover, the “root length, mean” value in data set [1] (0.1 nM, control 16.3 ± 1.21) was found to be 17.21 mm. In addition, in data set [1] (1 nM, control 16.3 ± 1.21), the “root length, mean” value is given as 17.61 mm. The “root length, mean” value in data set [1] (10 nM, control 16.3 ± 1.21) came out at 16.21 mm. In data set [1] (setting [6]), the “root length, mean” value came out at 13.731 mm. For the same molecule, the IC50 at 72 h in data set [2] was more than 50 µM. The IC50 at 72 h in data set [3] is more than 50 µM. Also, the IC50 at 72 h in data set [4] is more than 50 µM. For the same molecule, the IC50 at 72 h in data set [5] was more than 50 µM.
